Assay results: article PMC9967645, “OAT3 Participates in Drug–Drug Interaction between Bentysrepinine and Entecavir through Interactions with M8—A Metabolite of Bentysrepinine—In Rats and Humans In Vitro” (Molecules, 2023)
“And” between values parts separate entries of the source, which are not always exact repeats. Identical values can stand only once. Like-named read-outs stand apart in the source and are kept apart here.

How the values were obtained:
[1] = biological target: T1, hOAT3 (Homo sapiens, UniProt Q8TCC7); assay: In vitro uptake assay in hOAT3-HEK293 cells; conditions: M8 10 µM; for inhibition of the uptake of ETV in hOAT3-HEK293 cells / substrate of hOAT3 (uptake in hOAT3-HEK293 vs mock-HEK293 cells): Y101 2.0 µM; for substrate of hOAT3 (uptake in hOAT3-HEK293 vs mock-HEK293 cells): ES 10 µM
T1 sequence (Q8TCC7 1-542): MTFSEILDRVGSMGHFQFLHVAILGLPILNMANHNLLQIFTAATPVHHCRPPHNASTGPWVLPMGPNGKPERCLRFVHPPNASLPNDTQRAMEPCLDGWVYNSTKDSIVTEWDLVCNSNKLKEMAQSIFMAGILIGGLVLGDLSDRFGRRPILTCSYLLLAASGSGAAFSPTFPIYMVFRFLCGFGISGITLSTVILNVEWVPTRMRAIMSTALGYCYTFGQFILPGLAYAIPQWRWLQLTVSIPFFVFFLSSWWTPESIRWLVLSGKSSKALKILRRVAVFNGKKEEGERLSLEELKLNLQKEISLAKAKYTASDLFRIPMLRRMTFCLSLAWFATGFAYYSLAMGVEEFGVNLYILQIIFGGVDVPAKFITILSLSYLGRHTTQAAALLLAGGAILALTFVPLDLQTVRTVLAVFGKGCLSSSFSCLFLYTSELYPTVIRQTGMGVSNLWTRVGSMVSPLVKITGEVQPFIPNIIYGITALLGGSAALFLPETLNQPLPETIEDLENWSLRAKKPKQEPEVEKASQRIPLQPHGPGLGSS
Description: The hOAT1-HEK293, hOAT3-HEK293 and mock cells were cultured in Dulbecco modified Eagle medium (DMEM) containing 10% fetal bovine serum (FBS) and 1% penicillin/streptomycin in an atmosphere of 5% CO2 air at 37 °C. The HEK293 cells were plated on 24-well plates at a density of 5 × 10^5 cells/well. […] Uptake assay was initiated by adding 1 mL of the transporter buffer containing Y101, M8, ETV or probe substrate. Following incubation with gentle shaking, the uptake was terminated at designated time by removing the transporter buffer and washing cells three times with 1 mL of ice-cold HBSS. Next, substrates of Y101, M8, ETV, PAH and ES in cell monolayer were released by lysing the cells with 0.3 mL of 0.1% Triton X-100 for 2 h and determined by liquid chromatography–tandem mass spectrometry (LC–MS/MS). In the time-course uptake assay, Y101 (2.0 µM) and M8 (10 µM) in the presence or absence of PRO (100 µM) were measured in hOAT1-HEK293, hOAT3-HEK293 and mock cells. The concentration-dependent uptake of M8 was determined in hOAT3-HEK293 cells, and incubation time (5 min) was optimized. The uptake of M8 (10 µM) with or without ETV was examined in hOAT3-HEK293 cells. The uptake of ETV (10 µM) with or without Y101 or M8 was also measured in hOAT1-HEK293 and hOAT3-HEK293 cells, respectively. Furthermore, PAH and ES at concentrations of 10 µM were used as positive control in hOAT1-HEK293 and hOAT3-HEK293 cells, respectively. Protein concentrations were measured by the bicinchoninic acid procedure (Solarbio, Beijing, China) using bovine serum albumin as the standard.
Biological samples were prepared as previously described. Aliquots (50 µL) of urine, plasma, kidney homogenates, or cell lysates were individually mixed with 150 µL methanol and 50 µL working solution of internal standard (acetaminophen or bestatin), followed by vortexing for 1 min and centrifuging at 13,800 g for 10 min. […] The resulting supernatant (1 µL) was subjected to LC-MS/MS for the assessment of Y101, M8, M9 and ETV, respectively. […] The concentrations of ETV, Y101, M8 and M9 were determined by an AB QTRAP 5500 LC–MS/MS System (Foster City, CA, USA) as previously described. Chromatographic separation was achieved on an Infinitylab Poroshell 120 EC-C18 (50 mm × 2.1 mm, 2.7 µm, Agilent Technology Inc., CA, USA) at 40 °C. The mobile phase consisted of formic acid-acetonitrile (0.05:100, v/v) and a mixture of 1 mmol-ammonium acetate-acetonitrile-formic acid (95:5:0.05, v/v/v) at a flow rate of 0.3 mL/min. […] Analyst1.5.2 software was used for data processing and analysis.

[2] = Renal excretion study in rats (cumulative urinary excretion, renal clearance); assay type: in vivo, Sprague–Dawley (SD) rats; conditions: for CL renal: Sprague-Dawley, rat, urine, iv, read-out: CLR (renal clearance) (converted)
Description: To investigate the effects of PRO on the renal excretion of Y101 and its metabolites, rats received an intravenous dose of Y101 (25 mg/kg) or Y101 + PRO (25 mg/kg for Y101 and 100 mg/kg for PRO) via the caudal vein. In order to verify the DDI between Y101 and ETV in renal excretion, rats received an intravenous dose of Y101 (25 mg/kg) and/or ETV (0.06 mg/kg) by caudal vein.
[…] Subsequently, urine samples were stored at −70 °C until analysis. The cumulative urinary excretion and renal clearance (CLR) were calculated as previously described.
Biological samples were prepared as previously described.

[3] = 25 mg/kg, i.v. Y101 25 mg/kg + PRO 100 mg/kg
[4] = 25 mg/kg, i.v. Y101 25 mg/kg alone (Table 1, control of PRO study)
[5] = 25 mg/kg, i.v. Y101 25 mg/kg alone (Table 2, control of ETV study)
[6] = i.v. Y101 25 mg/kg + ETV 0.06 mg/kg
[7] = i.v. Y101 25 mg/kg + ETV 0.06 mg/kg, at 30 h post-dose
[8] = i.v. Y101 25 mg/kg + PRO 100 mg/kg, 0 to 48 h

CL renal [2, 6] [mL/min/kg] | inhibition of the uptake of M8 in hOAT3-HEK293 cells ([1]; PRO 100 µM, ETV 10 µM) | CL renal ([2]; 0.06 mg/kg, i.v. ETV 0.06 mg/kg alone) [mL/min/kg] | cumulative excretion in urine ([2]; i.v. ETV 0.06 mg/kg alone, at 30 h post-dose) [%] | Compound | inhibition of the uptake of ETV in hOAT3-HEK293 cells ([1]; ETV 10 µM) | substrate of hOAT3 (uptake in hOAT3-HEK293 vs mock-HEK293 cells) [1] | CL renal [2, 3] [mL/min/kg] | CL renal [2, 4] [mL/min/kg] | CL renal [2, 5] [mL/min/kg] | cumulative excretion in the urine [2, 7] | cumulative urinary excretion [2, 8] [%] | cumulative urinary excretion ([2]; i.v. Y101 25 mg/kg alone, at 48 h post-dose, 25 mg/kg) | cumulative urinary excretion ([2]; i.v. Y101 25 mg/kg alone, at 48 h post-dose)
33.3 | inhibited the uptake of M8 | 36.2 | 33.4 ± 1.55 | C=C1[C@H](CO)[C@@H](O)C[C@@H]1n1cnc2c(=O)[nH]c(N)nc21 [ETV, entecavir] |  |  |  |  |  |  |  |  | 
106 |  |  |  | CN(C)CCOc1ccc(CC(NC(=O)c2ccccc2)C(=O)O)cc1 (stereo not shown) [M8] | not inhibited | substrate of hOAT3 | 82.7 | 100 | 115 | 59.7 ± 5.78 % of the dose | 56.3 ± 3.00 |  | 68.1 ± 6.97 % of the dose and 68.1 % of the dose

Compound | CL renal [2, 6] [mL/min/kg] | inhibition of the uptake of M8 in hOAT3-HEK293 cells ([1]; PRO 100 µM, ETV 10 µM) | CL renal ([2]; 0.06 mg/kg, i.v. ETV 0.06 mg/kg alone) [mL/min/kg] | cumulative excretion in urine ([2]; i.v. ETV 0.06 mg/kg alone, at 30 h post-dose) [%] | inhibition of the uptake of ETV in hOAT3-HEK293 cells ([1]; ETV 10 µM) | substrate of hOAT3 (uptake in hOAT3-HEK293 vs mock-HEK293 cells) [1] | CL renal [2, 3] [mL/min/kg] | CL renal [2, 4] [mL/min/kg] | CL renal [2, 5] [mL/min/kg] | cumulative excretion in the urine [2, 7] | cumulative urinary excretion [2, 8] [%] | cumulative urinary excretion ([2]; i.v. Y101 25 mg/kg alone, at 48 h post-dose, 25 mg/kg) | cumulative urinary excretion ([2]; i.v. Y101 25 mg/kg alone, at 48 h post-dose)
CN(C)CCOc1ccc(C[C@H](NC(=O)c2ccccc2)C(=O)N[C@H](CO)Cc2ccccc2)cc1.Cl [Y101, N-[N-benzoyl-O-(2-dimethylaminoethyl)-l-tyrosyl]-l-phenylalaninol hydrochloride] | 7.93 |  |  |  | not inhibited | not a substrate of hOAT1 or hOAT3 | 5.28 | 6.1 | 7.18 | 4.48 ± 0.742 % of the dose | 3.59 ± 0.526 | 4.16 ± 0.843 % of the dose and 4.16 % of the dose | 
